Test results published in patent publication US10995068B2, “Synthetic sphingolipid-like molecules, drugs, methods of their synthesis and methods of treatment” (The Regents of the University of California, priority 2015, dated 2021).
Values joined by “and” are separate entries in the source; they are usually repeats but may differ in a detail not shown here. Equal entries are not always repeated. Where two headings read alike, the source gives them in different places.

Legend:
[1] = test system: DU145 prostate cancer cells; assay: Cell Titer Glo proliferation assay in DU145; format: cell-based, human; conditions: Mean ± SEM, n ≥ 3, read-out: IC50 values in prostate cancer cell lines, DU145
Experimental: (§1) Previously presented compounds 1-4 (FIG. 23), compounds 5-8 (FIG. 28), and control compound FTY720 (FIG. 2) were used to treat the well-established PC3 and DU145 prostate cancer lines (FIG. 29 and Table 1). A Cell Titer Glo assay was performed to measure proliferation of the cancer lines.
(§2) Cell culture studies: Sup-B15 cells are maintained at 2-3 million/mL in RPMI 1640 (Mediatech) supplemented with 10% fetal calf serum (FCS, Sigma-Aldrich), 10 mM Hepes (Mediatech), 55 μM β-mercaptoethanol (Sigma-Aldrich), 2 mM L-glutamine (Mediatech), and antibiotics. All adherent cells are maintained at 70-80% confluence. Cell are cultured in the following media: PC3 & A549, Ham's F12K (Corning Cell Gro) supplemented with 10% FCS and antibiotics; DU145 cells, MEM (Corning Cell Gro) supplemented with 10% FCS, 1 mM sodium pyruvate (Mediatech), and antibiotics; SW620 & MDA-MB-231, DMEM (Corning Cell Gro) with 10% FCS, 1 mM sodium pyruvate (Mediatech), and antibiotics; Panc-1 cells, DMEM (Corning Cell Gro) supplemented with 10% FCS and antibiotics. All of the above cell lines are available from the ATCC.
(§3) Viability assays: Cell Titer Glo assays (Cell Titer Glo Luminescent Cell Viability Assay kit, cat #G7571, Promega Corporation) are performed in clear bottom 96-well black cell culture plates (cat #655090, Greiner Bio-One, NC, USA). After plating at 1,000 cells/well in volume of 100 μl, cells are left undisturbed for at least 24 h before drug addition. After 72 h, cells are prepared for analysis by adding 10 μl of 0.1% Triton-X100 in PBS with shaking for 1 min at room temperature (RT). Cell Titer-Glo cell lysis reagent (20 μl) is then added followed by 1 min of shaking and a 10 min incubation in the dark at RT. Luminescence is detected using an IVIS imaging system (IVIS Lumina II, Perkin Elmer, USA). […] IC50s are determined using GraphPad Prism (GraphPad Software, Inc, La Jolla, Calif.). SupB-15 viability was determined by flow cytometry. Cell Titer Glo assays were performed with the other cell lines.

[2] = test system: PC3 prostate cancer cells; assay: Cell Titer Glo proliferation assay in PC3; format: cell-based, human; conditions: Cell Titer Glo, 72 h, Mean ± SEM, n ≥ 3, read-out: IC50 values in prostate cancer cell lines, PC3
Experimental: as §1, §2, §3

[3] = test system: FL5.12 cells; assay: Vacuolation assay; format: cell-based, murine; design: key to Vacuolation score: 0-100 score: (3×%cat3+2×%cat2+1×%cat1)/3; cells graded 0-3 for vacuoles; conditions: for Vacuolation score / vacuolation (in words): FL5.12 cells; for Vacuolation score: 3 h in 2.5 μM compound except where otherwise indicated, mean ± SEM, n ≥3; for vacuolation (in words): at any dose / highest dose tested; for ability to induce vacuole formation: highest concentrations tested (30 μM)
Experimental: (§4) In an exemplified study, nutrient transporter down-regulation was monitored by quantifying surface levels of the amino acid transporter-associated protein, CD98, by flow cytometry. Vacuolation was scored in a range from 0 to […], as determined by a vacuolation assay described in greater detail in the Materials and Methods section below.
Vacuolation assay: Cells were evaluated at 100× using brightfield microscopy and a Nikon TE2000-S fluorescence microscope equipped with DIC filters. Vacuolation was quantified after a 3 h incubation period in 2.5 μM compound except where otherwise indicated. To calculate a vacuolation score, vacuolation severity in at least 15 individual cells/experiment was assessed qualitatively. Scores were assigned to individual cells as follows: 0=no vacuoles, 1=very small vacuoles, 2=multiple well-defined vacuoles, 3=multiple large vacuoles. To calculate the vacuolation score associated with a compound, the following formula was used: vacuolation score=[(3×% cells in category 3)+(2×% cells in category 2)+(1×% cells in category 1)]/3.
The score is divided by 3 so that a compound with 100% of its cells in category 3 would have a vacuolation score of 100. Three independent experiments were conducted and the vacuolation scores averaged to generate a mean+/−SEM. All cells were scored by one lab member after confirming that a blinded individual scored 5 compounds with similar results.

[4] = test system: murine hematopoietic cell line FL5.12; assay: Viability of FL5.12 cells by vital dye exclusion; format: cell-based; conditions: for IC50: FL5.12 cells, 48 h, vital dye exclusion, n ≥3, read-out: IC50 (μM) [95% CI]
Experimental: (§5) Cell culture studies: FL5.12 cells (murine hematopoetic cells originally obtained from Craig Thompson, Memorial Sloan Kettering Cancer Center) were maintained at 0.1-0.5 million/ml in RPMI 1640 (Mediatech) supplemented with 10% fetal calf serum (FCS, Sigma-Aldrich), 10 mM Hepes (Mediatech), 500 pg/ml recombinant IL-3 (cat #575502, Biolegend), 55 μM β-mercaptoethanol (Sigma-Aldrich), 2 mM L-glutamine (Mediatech), and antibiotics. Cells were screened for Mycoplasma every 3 months using the Look-Out Mycoplasma PCR Detection kit (cat #MP0035, Sigma).
IC50 values were calculated using GraphPad Prism (GraphPad Software, Inc, La Jolla, Calif.).

[5] = test system: CD98 (4F2hc, SLC3A2); assay: Surface CD98 nutrient transporter down-regulation by flow cytometry; format: cell-based, murine; conditions: FL5.12 cells; for % CD98 down-regulation: surface CD98 at 3 h, flow cytometry, mean ± SEM, n ≥3
From the text: as §4, §5
Nutrient transporter expression: Surface CD98 (4F2hc, SLC3A2) expression was measured at 3 h using phycoerythrin (PE)-conjugated rat anti-mouse CD98 antibody (Biolegend, cat #128208); analysis was restricted to viable cells. PE conjugated Rat IgG2a, k (cat #400508, Biolegend) was used as an isotype control. For staining, 200,000 cells were pelleted, re-suspended in 100 μl FACS block (PBS with 10% FCS and 0.05% NaN3) containing 0.25 μL anti-CD98 antibody, incubated on ice for 30 min, washed twice with 1 ml FACS wash (PBS containing 2% FCS and 0.05% NaN3), and analyzed on a BD LSR II flow cytometer. Data was processed with FlowJo software (Treestar).

Compound | Vacuolation score [3] | IC50 [4] | % CD98 down-regulation [5] | further results
CCCCCCCCc1ccc([C@H]2C[C@H](CO)N[C@H]2CO)cc1 [Compound 1, (2R,3R,5R)-2,5-bis-hydroxymethyl-3-(4-octyl)phenyl pyrrolidine] |  |  |  | IC50 ([1]; 72 h): 7.3 ± 0.8 µM; IC50 [2]: 7 ± 0.3 µM
CCCCCCCCc1ccc([C@@H]2C[C@@H](CO)N[C@@H]2CO)cc1 [Compound 2] |  |  |  | IC50 ([1]; 72 h): 5.7 ± 0.4 µM; IC50 [2]: 6.1 ± 1 µM
CCCCCCCCc1ccc(C2CCNC2CO)cc1 (stereo not drawn) [Compound 7] |  |  |  | IC50 ([1]; 72 h): 5.3 ± 0.7 µM; IC50 [2]: 5.5 ± 0.7 µM
CCCCCCCCc1ccc(C2CCNC2CO)cc1 (stereo not drawn) [Compound 8] |  |  |  | IC50 ([1]; 72 h): 5.4 ± 0.3 µM; IC50 [2]: 6.5 ± 0.3 µM
CCCCCCCCc1ccc([C@@H]2CC(=O)N[C@H]2CO)cc1 [Compound 9, (4S,5R)-5-(hydroxymethyl)-4-(4-octylphenyl)Pyrrolidin-2-one] |  |  |  | IC50 ([1]; Homo sapiens, DU-145, 72 h): > 20 µM; IC50 ([2]; Homo sapiens): > 20 µM
CCCCCCCCc1ccc([C@H]2CC(=O)N[C@H]2CO)cc1 [Compound 10] |  |  |  | IC50 ([1]; 72 h): > 20 µM; IC50 [2]: > 20 µM
CCCCCCCCc1ccc([C@@H]2CC(=O)N[C@@H]2CO)cc1 [Compound 11] |  |  |  | IC50 ([1]; 72 h): > 20 µM; IC50 [2]: > 20 µM
CCCCCCCCc1ccc([C@H]2CCN[C@@H]2C)cc1 [Compound 13] |  |  |  | IC50 ([1]; 72 h): 5.1 ± 0.6 µM; IC50 [2]: 4.4 ± 0.6 µM
CCCCCCCCc1ccc(COC2CNC(CO)C2)cc1 (stereo not drawn) [Compound 102] | 33 ± 2 | 2 µM | 63 ± 3% | 
CCCCCCCCc1ccc(COC2CNC(CO)C2)cc1 (stereo not drawn) [Compound 103] | 47 ± 2 | 3 µM | 48 ± 2% | 
CCCCCCCCc1ccc([C@@H]2CCN[C@H]2CO)cc1 [Compound 105] | 53 and 53 ± 3 | 1.7 µM | 47% and 47 ± 3% | 
CCCCCCCCCCCCC/C=C/[C@@H](O)[C@@H](N)CO [Compound 106, sphingosine, reference compound] | 57 ± 6 |  | 48 ± 2% | IC50 ([4]; Mus musculus): 3.6 µM; concentration required to cause similar transporter loss ([5]; CD98 loss): 2.5 µM
CCCCCCCCCCCCCCC[C@@H](O)[C@@H](N)CO [Compound 107, sphinganine, reference compound] | 38 ± 6 |  | 47 ± 3% | IC50 ([4]; Mus musculus): 3.5 µM
CCCCCCCCCCCCC/C=C/[C@@H](O)[C@H](CO)N(C)C [Compound 108, dimethylsphingosine, reference compound] | 72 ± 3 | 0.77 µM and 0.8 µM | 69 ± 2% | fold more potent than sphingosine (106) ([4]; IC50, FL5.12 cells): ~5 fold
CCCCCCc1ccc(COC2CNC(CO)C2)cc1 (stereo not drawn) [Compound 111] | 0 | 2.7 µM | 30 ± 2% | 
CCCCC=Cc1ccc(COC2CNC(CO)C2)cc1 (stereo not drawn) [Compound 112] | 0 | 5.5 µM | 30 ± 4% | 

Compound | Vacuolation score [3] | IC50 [4] | % CD98 down-regulation [5] | further results
CCCCCCC=Cc1ccc(COC2CNC(CO)C2)cc1 (stereo not drawn) [Compound 113] | 27 ± 1 | 1.4 µM | 64 ± 1% | 
CCCCCCCCCCCCc1ccc(COC2CNC(CO)C2)cc1 (stereo not drawn) [Compound 114] | 3 ± 1 | 10.1 µM | 13 ± 3% | 
CCCCCCCCCCCCCCc1ccc(COC2CNC(CO)C2)cc1 (stereo not drawn) [Compound 116] | 4 ± 2 | 10.5 µM | 12 ± 3% | 
CCCCC=Cc1ccc(COC2CNC(CO)C2)cc1 (stereo not drawn) [Compound 118] | 5 ± 2 | 5.7 µM | 9 ± 3% | 
CCCCCCC=Cc1ccc(COC2CNC(CO)C2)cc1 (stereo not drawn) [Compound 119] | 70 ± 1 | 2.4 µM | 41 ± 3% | 
CCCCCCCCCCc1ccc(COC2CNC(CO)C2)cc1 (stereo not drawn) [Compound 120] | 36 ± 5 | 3.6 µM | 28 ± 1% | 
CCCCCCCCCCCCc1ccc(COC2CNC(CO)C2)cc1 (stereo not drawn) [Compound 121] | 30 ± 2 | 3.9 µM | 14 ± 4% | 
CCCCCCCCCCCCCCc1ccc(COC2CNC(CO)C2)cc1 (stereo not drawn) [Compound 123] | 3 ± 3 | 5.7 µM | 19 ± 1% | 
CCCCCCC=Cc1ccc(C2CCNC2CO)cc1 (stereo not drawn) [Compound 125] | 84 ± 2 | 1.7 µM | 58 ± 3% | 
CCCCCCC=Cc1ccc(COC2CC(CO)N(C)C2)cc1 (stereo not drawn) [Compound 130] | 26 ± 2 | 1.9 µM | 31 ± 4% | 
CCCCCCCCc1ccc(COC2CC(CO)N(C(C)=O)C2)cc1 (stereo not drawn) [Compound 131] | 1 ± 1 | 29.7 µM | 37 ± 3% | vacuolation (in words) [3]: no vacuolation activity; fold less potent than analog 102 ([4]; IC50, FL5.12 cells): 10 fold
CCCCCCCCc1ccc(COC2CC(CO)N(C(=N)N)C2)cc1 (stereo not drawn) [Compound 132] | 0 | 14.2 µM | 35 ± 1% | ability to induce vacuole formation [3]: lost
CCCCCCCCc1ccc(COC2CC(CO)N(C(=N)N)C2)cc1 (stereo not drawn) [Compound 133] | 0 | 17.3 µM | 34 ± 3% | ability to induce vacuole formation [3]: lost
CCCCCCCCc1ccc([C@H]2CCN(C(C)=O)[C@@H]2CO)cc1 [Compound 134] | 0 | 39.7 µM | 40 ± 4% | vacuolation (in words) [3]: failed to induce vacuolation
CCCCCCC=Cc1ccc(C2CCN(C(C)=O)C2CO)cc1 (stereo not drawn) [Compound 135] | 2 ± 2 | 46.2 µM | 40 ± 2% | vacuolation (in words) [3]: failed to induce vacuolation
